Measured values: patent EP0584290B1, “ENDOTHELIN ANTAGONISTS” (WARNER-LAMBERT COMPANY, priority 1991, dated 1992)
pIC50: −log10 of the molar value. Square brackets hold non-standard residues; d marks the D form. Ends that are not written are not given here. Peptide text beside a SMILES is read from it. d1Nal = N[C@H](Cc1cccc2ccccc12)C(=O)O

How the values were obtained:
[1] = target: endothelin receptor, rat heart ventricle; experiment: [125I]-ET-1 binding assay in rat heart ventricle; settings: [125I]-ET-1, rat heart ventricle (10 µg), 37°C, 2 hours
Protocol: (§1) The compounds of Formula I are valuable antagonists of endothelin. […] Thus, the compounds of Formula I were tested for their ability to inhibit [^125I]-ET-1([^125I]-Endothelin-1) binding in a receptor assay. The binding of the compounds of Formula I is determined by incubation (37°C, 2 hours) of a compound of Formula I with [^125I]-ET-1 and the tissue (rat heart ventricle (10 µg)) in 50 mM Tris(hydroxymethyl)aminomethane hydrochloride (Tris-HCl) (pH 7.4), 5 mM ethylenediamine tetraacetic acid (EDTA), 2 mM ethylene glycol bis(β-aminoethyl ether)N,N,N',N'-tetraacetic acid (EGTA), 100 µM phenylmethylsulfonyl fluoride (PMSF), and 100 µM bacitracin containing protease inhibitors (total volume of 0.5 mL). IC50 values are calculated by weighing nonlinear regression curve-fitting to the mass-action (Langmuir) equation. The functional activity of compounds of Formula I is determined in Rat-1 cells by measuring intracellular levels of second messengers. Thus, cells were prelabeled with [^3H]-inositol and endothelin-stimulated accumulation of total [^3H]-inositol phosphates in the presence of Li^+ is monitored using anion exchange chromatography as described by Muldoon, L. L., et al, Journal of Biological Chemistry, Volume 264, pages 8529-8536 (1989) and Dudley, D. T., et al, Molecular Pharmacology, Volume 38, pages 370-377 (1990). Antagonist activity is assessed as the ability of added compounds to reduce endothelin-stimulated inositol phosphate accumulation. Antagonist activity was also measured by the ability of added compounds to reduce endothelin-stimulated arachidonic acid release in cultured vascular smooth muscle cells as (AAR) described in Reynolds, E., Mok, K., Faseb J., 1991, 5, A1066. The data in the table show the endothelin antagonist activity of representative compounds of Formula I. TABLE 1

ET receptor = settings: relative to ET-1; cited from earlier work
Rat-1 cells = target: T1, Rat-1 cells (Rattus norvegicus, UniProt P26684); experiment: Endothelin-stimulated inositol phosphate (IP) accumulation in Rat-1 cells; assay type: cell-based
T1 sequence (P26684 21-426): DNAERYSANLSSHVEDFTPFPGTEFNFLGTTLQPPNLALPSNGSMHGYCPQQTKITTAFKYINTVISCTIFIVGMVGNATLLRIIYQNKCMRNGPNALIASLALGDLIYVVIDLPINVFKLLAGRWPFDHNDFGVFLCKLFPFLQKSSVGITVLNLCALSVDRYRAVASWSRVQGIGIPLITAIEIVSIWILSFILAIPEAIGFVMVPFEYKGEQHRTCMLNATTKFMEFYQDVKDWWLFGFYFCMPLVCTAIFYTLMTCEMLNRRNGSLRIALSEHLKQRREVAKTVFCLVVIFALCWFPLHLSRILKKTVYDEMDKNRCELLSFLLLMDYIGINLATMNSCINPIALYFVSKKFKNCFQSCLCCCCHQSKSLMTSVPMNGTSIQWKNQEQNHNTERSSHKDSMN
Protocol: as §1, with “Antagonist activity is assessed as the ability of added compounds to reduce endothelin-stimulated inositol phosphate accumulation. Antagonist activity was also measured by the ability of added compounds to reduce endothelin-stimulated arachidonic acid release in cultured vascular smooth muscle cells as (AAR) described in Reynolds, E., Mok, K., Faseb J., 1991, 5, A1066. The data in the table show the endothelin antagonist activity of representative compounds of Formula I. TABLE 1” left out

Row | Molecule | pIC50 [1] | other results
1 | CC[C@@H](C)[C@@H](NC(=O)[C@@H](NC(=O)[C@@H](CC(=O)O)NC(=O)[C@H](CC(C)C)NC(=O)[C@@H](Cc1c[nH]cn1)NC(C)=O)[C@@H](C)CC)C(=O)N[C@@H](Cc1c[nH]c2ccccc12)C(=O)O [Example 7, Ac-D-His-Leu-D-Asp-Ile-D-Ile-Trp] (Ac-[dH]L[dD]I[dI]W-OH) | 5.22 | –
2 | CC[C@H](C)[C@H](NC(=O)[C@H](CC(=O)O)NC(=O)[C@H](CC(C)C)NC(=O)[C@@H](Cc1ccccc1)NC(C)=O)C(=O)N[C@@H](Cc1c[nH]c2ccccc12)C(=O)O [Example 6, Ac-D-Phe-Leu-Asp-Ile-Trp] (Ac-[dF]LDIW-OH) | 4.61 | –
3 | ET[1-20]: ET-1 analogue without the C-terminal amino acid (Trp-21) (CSCSSLMDKECVYFCHLDII; not fully specified (bridges); ends and bridges not checked; UniProt P05305 53-72, looked up, fragment) | – | less functional activity (ET receptor): approximately 1000 fold
4 | CC[C@H](C)[C@H](NC(=O)[C@H](CC(=O)O)NC(=O)[C@H](CC(C)C)NC(=O)[C@H](N)Cc1cccc2ccccc12)C(=O)N[C@H](C(=O)N[C@@H](Cc1c[nH]c2ccccc12)C(=O)O)[C@@H](C)CC [Example 4, D-1-Nal-Leu-Asp-Ile-Ile-Trp] (H-[d1Nal]LDIIW-OH) | – | inhibition at 50 µM (Rat-1 cells): 53%
5 | CC[C@H](C)[C@H](NC(=O)[C@H](CC(=O)O)NC(=O)[C@H](CC(C)C)NC(=O)[C@@H](Cc1ccccc1)NC(C)=O)C(=O)N[C@H](C(=O)N[C@@H](Cc1c[nH]c2ccccc12)C(=O)O)[C@@H](C)CC [Example 1, Ac-D-Phe-Leu-Asp-Ile-Ile-Trp] (Ac-[dF]LDIIW-OH) | 6.14 | –
6 | CC[C@H](C)[C@H](NC(=O)[C@H](CC(=O)O)NC(=O)[C@@H](Cc1ccccc1)NC(C)=O)C(=O)N[C@H](C(=O)N[C@@H](Cc1c[nH]c2ccccc12)C(=O)O)[C@@H](C)CC [Example 11, Ac-D-Phe-Asp-Ile-Ile-Trp] (Ac-[dF]DIIW-OH) | 5.67 | –
